Measured values: publication PMC6753678, “Fueling Open Innovation for Malaria Transmission-Blocking Drugs: Hundreds of Molecules Targeting Early Parasite Mosquito Stages” (Frontiers in Microbiology, 2019)
Where two headings read alike, the source gives them in different places.

Columns and labels:
[1] = test system: 3D7-strain P. falciparum asexual parasites; assay: P. falciparum asexual growth inhibition assay (Pf GIA); format: cell-based, Plasmodium falciparum; settings: dose response confirmation; read-out: Pf asexual growth inhibition assays IC50
In short: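 Read-out was lactate dehydrogenase activity measured by absorbance at 650 nm after freezing and thawing, against 50 μM chloroquine and DMSO controls. Before that, asexual 3D7 cultures (0.25% parasitemia, 2% hematocrit) had 72 h dose-response compound exposure at 37°C in 5% CO2/5% O2/90% N2; three independent replicates averaged.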

HepG2 cells = assay: HepG2 cytotoxicity assay; settings: for IC50: read-out: HepG2 cytotoxicity assay IC50, dose response confirmation; for Pb ODA (this manuscript) HepG2 cytoxicity: HepG2 cytotoxicity listed with the Pb ODA data set (this manuscript)
In short: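 Cells are plated at 2,500 per well on compound-treated plates in MEM containing 10% fetal bovine serum and 1% NEAA, then incubated 48 h at 37°C.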

[2] = test system: P. berghei ookinete development; settings: for % inhibition, Replicate A / % inhibition, Replicate B: primary screen at 1 μM
[3] = HepG2 values of the three screens unified
[4] = read-out: Pb ODA IC50, this manuscript
[5] = read-out: Pb Ookinete development assay IC50, dose response confirmation
[6] = read-out: Pb ODA (this manuscript) IC50, P. berghei ookinete development assay, this manuscript
[7] = unified HepG2 value across the three screens

Structure (SMILES) | IC50 [1] | HepG2 cytoxicity (Pb ODA, this manuscript) (HepG2 cells) | Unified cytotox (HepG2 cells; [3]) | IC50 (HepG2 cells) | Is compound selective in assay? Pb ODA active? ([2]; 1: YES, 0: NO) | % inhibition, Replicate A [2] | % inhibition, Replicate B [2] | IC50 [2, 4] | IC50 [2, 5] | Pb ODA (this manuscript) HepG2 cytoxicity (HepG2 cells) | Is compound selective in assay? Pb ODA active? [2] | IC50 [2, 6] | Unified cytotox (HepG2 cells; [7])
COc1ccc2nccc([C@@H](O)CN3CCC(NCCOc4ccc(F)cc4Cl)CC3)c2c1.O=C(O)C(=O)O [TCMDC-140660] | 173 nM | 32.36 µM | 32.36 µM | 32400 nM | 0 (0: NO) | 30.16% | 50.20% | 8290 nM | 8290 nM | – | – | – | –
COc1cc(-c2nc(C(C)(C)CN)[nH]c2-c2ccncc2)ccc1Br.Cl [TCMDC-140674] | 3120 nM | – | – | 39800 nM | – | 75.42% | 38.48% | – | 1320 nM | 39.81 µM | 1 (key: 1: YES; 0: NO) | 1320 nM | –
COc1cccc(CNCC(C)(C)c2nc(-c3ccc(Cl)c(O)c3)c(-c3ccncc3)[nH]2)c1.Cl [TCMDC-140687] | 759 nM | – | – | 5010 nM | – | 13.26% | 51.15% | – | 3740 nM | 5.01 µM | 0 (key: 1: YES; 0: NO) | 3740 nM | –
COc1ccc2nccc([C@@H](O)CN3CCC(NCc4cc5ccc(C#N)cc5[nH]4)CC3)c2c1.O=C(O)C(=O)O [TCMDC-140696] | 168 nM | 1.55 µM | 1.55 µM | 1550 nM | 0 (0: NO) | 54.58% | 89.62% | 1880 nM | 1880 nM | – | – | – | –
COc1ccc2nccc([C@@H](O)CN3CCC(NCc4cc5c(F)ccc(F)c5[nH]4)CC3)c2c1.O=C(O)C(=O)O [TCMDC-140739] | 98 nM | 14.79 µM | 14.79 µM | 14800 nM | 0 (0: NO) | 18.82% | 50.21% | 2790 nM | 2790 nM | – | – | – | –
COc1ccc2nccc([C@@H](O)CN3CCC(NC(=O)c4ccc5cc[nH]c5c4)CC3)c2c1.CS(=O)(=O)O [TCMDC-140743] | 1130 nM | – | 100.00 µM | 100000 nM | 1 (1: YES) | 89.95% | 58.25% | 460 nM | 459 nM | – | – | – | –
COc1ccc2nccc([C@@H](O)CN3CCC(NCc4cc5c(F)ccc(F)c5[nH]4)CC3)c2n1.CS(=O)(=O)O [TCMDC-140749] | 130 nM | – | – | 14100 nM | – | 52.78% | 27.90% | – | 3270 nM | 14.13 µM | 0 (key: 1: YES; 0: NO) | 3270 nM | –
COc1ccc2nccc([C@@H](O)CN3CCC(NCc4cc5ccccc5nc4O)CC3)c2c1.Cl [TCMDC-140759] | 431 nM | 48.98 µM | 48.98 µM | 49000 nM | 1 (1: YES) | 50.79% | 52.50% | 2010 nM | 2010 nM | – | – | – | –
O=C(NCc1ccco1)c1ccc(CN2CCN(C(c3ccccc3)c3ccccc3)CC2)cc1 [TCMDC-140763] | 1260 nM | – | – | 52500 nM | 1 (1: YES) | 50.96% | 28.39% | 1480 nM | 1480 nM | – | – | – | 52.48 µM
COc1ccc2nccc([C@@H](O)CN3CCC(NC(=O)c4cc5ccccc5[nH]4)CC3)c2c1.CS(=O)(=O)O [TCMDC-140780] | 940 nM | 50.70 µM | 50.70 µM | 50700 nM | 1 (1: YES) | 48.77% | 68.59% | 240 nM | 239 nM | – | – | – | –
COc1ccc2nccc([C@@H](O)CN3CCC(NC(=O)c4cc5c(F)cc(F)cc5[nH]4)CC3)c2c1.CS(=O)(=O)O [TCMDC-140781] | 301 nM | 11.22 µM | 11.22 µM | 11200 nM | 1 (1: YES) | 60.81% | 64.63% | 1000 nM | 1000 nM | – | – | – | –
COc1ccc2nccc([C@@H](O)CN3CCC(NCc4ccc5c(c4)NC(=O)CO5)CC3)c2c1.Cl [TCMDC-140793] | 721 nM | – | – | 28200 nM | – | 51.85% | 48.48% | – | 3630 nM | 28.18 µM | 0 (key: 1: YES; 0: NO) | 3630 nM | –
COc1ccc2nccc([C@@H](O)CN3CCC(NC(=O)/C=C/c4c[nH]c5c(C)cccc45)CC3)c2c1 [TCMDC-141000] | 433 nM | 51.29 µM | 51.29 µM | 51300 nM | 1 (1: YES) | 72.27% | 60.86% | 1900 nM | 1900 nM | – | – | – | –
CN(C)CCN(C)C(=O)c1cc(-c2ccncc2)c(-c2ccc(Cl)c(O)c2)o1.Cl [TCMDC-141393] | 2490 nM | – | – | 53700 nM | 1 (1: YES) | 35.76% | 53.63% | 1750 nM | 1750 nM | – | – | – | 53.70 µM
COc1ccc2nccc(NC(=O)C3(O)CCC(NCc4ccc5c(c4)NCCS5)CC3)c2n1.Cl (stereo not shown) [TCMDC-141406] | 1040 nM | – | – | 24300 nM | – | 91.89% | 114.20% | – | 347 nM | 24.27 µM | 1 (key: 1: YES; 0: NO) | 350 nM | –
CCN(CC)CCCNc1nccc(N(C)c2ccc(NC(=O)Nc3cc(C(F)(F)F)ccc3F)cc2)n1.O=C(O)C(F)(F)F [TCMDC-141634] | 811 nM | – | – | 2750 nM | 0 (0: NO) | 55.58% | 13.78% | 9020 nM | 9020 nM | – | – | – | 2.75 µM
COc1ccc2ncc(Cl)c(CCN3CCC(NCc4ccc5c(n4)NC(=O)CS5)CC3)c2c1.Cl [TCMDC-141807] | 379 nM | 15.49 µM | 15.49 µM | 15500 nM | 1 (1: YES) | 68.31% | 67.95% | 1340 nM | 1340 nM | – | – | – | –
COc1ccc2ncc(Cl)c(CCN3CCC(NCc4ccc5c(n4)NC(=O)CO5)CC3)c2c1.Cl [TCMDC-141808] | 14 nM | – | – | 1290 nM | – | 43.21% | 70.93% | – | 1220 nM | 1.29 µM | 0 (key: 1: YES; 0: NO) | – | –
